Assay results from PubChem BioAssay AID1918954 (Molecular Pharmacology Branch, DTP, NCI, 2023).

Test system: MDA-MB-468 complex spheroids with HUVEC/MSC, viability
Assay: Anticancer human tumor MDA-MB-468 cell line growth inhibition;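 note: spheroids exposed to agents for seven days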;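 for viability, T/C: 100% = DMSO vehicle control viability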
Conditions: for IC50: curve of first compound; for viability, T/C: stronger effect = lower value; active = viability on the fitted dose curve at most 10% of control; inactive = the rest
Outline: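 Drug combinations with the LSD1 inhibitor iadademstat tested on tumor cells co-cultured as spheroids with endothelial cells and mesenchymal stem cells. Concentrations descended in half-log increments from clinical Cmax or 10 microM.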

[1] = second compound 0.1 µM, first compound 0.0316 µM
[2] = second compound 0.1 µM, first compound 0.1 µM
[3] = second compound 0.1 µM, first compound 0.316 µM
[4] = second compound 0.1 µM, first compound 1 µM
[5] = second compound 0.1 µM, first compound 3.16 µM
[6] = second compound 0.1 µM, first compound 10 µM
[7] = second compound 0.316 µM, first compound 0.0316 µM
[8] = second compound 0.316 µM, first compound 0.1 µM
[9] = second compound 0.316 µM, first compound 0.316 µM
[10] = second compound 0.316 µM, first compound 1 µM
[11] = second compound 0.316 µM, first compound 3.16 µM
[12] = second compound 0.316 µM, first compound 10 µM
[13] = second compound 1 µM, first compound 0.0316 µM
[14] = second compound 1 µM, first compound 0.1 µM
[15] = second compound 1 µM, first compound 0.316 µM
[16] = second compound 1 µM, first compound 1 µM
[17] = second compound 1 µM, first compound 3.16 µM
[18] = second compound 1 µM, first compound 10 µM
[19] = second compound 3.16 µM, first compound 0.0316 µM
[20] = second compound 3.16 µM, first compound 0.1 µM
[21] = second compound 3.16 µM, first compound 0.316 µM
[22] = second compound 3.16 µM, first compound 1 µM
[23] = second compound 3.16 µM, first compound 3.16 µM
[24] = second compound 3.16 µM, first compound 10 µM
[25] = second compound 10 µM, first compound 0.0316 µM
[26] = second compound 10 µM, first compound 0.1 µM
[27] = second compound 10 µM, first compound 0.316 µM
[28] = second compound 10 µM, first compound 1 µM
[29] = second compound 10 µM, first compound 3.16 µM
[30] = second compound 10 µM, first compound 10 µM
[31] = second compound 0.1 µM, first compound 0.00949 µM
[32] = second compound 0.1 µM, first compound 0.03 µM
[33] = second compound 0.1 µM, first compound 0.0949 µM
[34] = second compound 0.1 µM, first compound 0.3 µM
[35] = second compound 0.316 µM, first compound 0.00949 µM
[36] = second compound 0.316 µM, first compound 0.03 µM
[37] = second compound 0.316 µM, first compound 0.0949 µM
[38] = second compound 0.316 µM, first compound 0.3 µM
[39] = second compound 1 µM, first compound 0.00949 µM
[40] = second compound 1 µM, first compound 0.03 µM
[41] = second compound 1 µM, first compound 0.0949 µM
[42] = second compound 1 µM, first compound 0.3 µM
[43] = second compound 3.16 µM, first compound 0.00949 µM
[44] = second compound 3.16 µM, first compound 0.03 µM
[45] = second compound 3.16 µM, first compound 0.0949 µM
[46] = second compound 3.16 µM, first compound 0.3 µM
[47] = second compound 10 µM, first compound 0.00949 µM
[48] = second compound 10 µM, first compound 0.03 µM
[49] = second compound 10 µM, first compound 0.0949 µM
[50] = second compound 10 µM, first compound 0.3 µM

CC1(C)CCC(CN2CCN(c3ccc(C(=O)NS(=O)(=O)c4ccc(NCC5CCOCC5)c([N+](=O)[O-])c4)c(Oc4cnc5[nH]ccc5c4)c3)CC2)=C(c2ccc(Cl)cc2)C1 + NC1CC1c1ccc(-c2cccc(O)c2)cc1
509 nM: IC50 (second compound 10 µM)
1830 nM: IC50 (second compound 1 µM)
1700 nM: IC50 (second compound 0.316 µM)
inactive: viability, T/C [1] 106% | viability, T/C [2] 90.4% | viability, T/C [3] 96.9% | viability, T/C [4] 72.7% | viability, T/C [5] 29% | viability, T/C [7] 90.3% | viability, T/C [8] 108% | viability, T/C [9] 94.4% | viability, T/C [10] 64.7% | viability, T/C [11] 30.9% | viability, T/C [13] 93.7% | viability, T/C [14] 101% | viability, T/C [15] 88.6% | viability, T/C [16] 75.8% | viability, T/C [17] 27.4% | viability, T/C [19] 91.2% | viability, T/C [20] 83.1% | viability, T/C [21] 92.1% | viability, T/C [22] 64% | viability, T/C [23] 24.5% | viability, T/C [25] 78.5% | viability, T/C [26] 67.7% | viability, T/C [27] 59.9% | viability, T/C [28] 38.5% | viability, T/C [29] 16.8%
1820 nM: IC50 (second compound 0.1 µM)
1550 nM: IC50 (second compound 3.16 µM)
active: viability, T/C [6] 2.15% | viability, T/C [12] 1.99% | viability, T/C [18] 2.31% | viability, T/C [24] 1.95% | viability, T/C [30] 1.82%

CC1COCCN1c1cc(C2(S(C)(=N)=O)CC2)nc(-c2ccnc3[nH]ccc23)n1 (stereo not given) + NC1CC1c1ccc(-c2cccc(O)c2)cc1
771 nM: IC50 (second compound 0.316 µM)
613 nM: IC50 (second compound 1 µM)
714 nM: IC50 (second compound 0.1 µM)
active: viability, T/C [12] 7.91% | viability, T/C [18] 7.07% | viability, T/C [24] 7.17% | viability, T/C [30] 6.83%
189 nM: IC50 (second compound 10 µM)
603 nM: IC50 (second compound 3.16 µM)
inactive: viability, T/C [1] 80% | viability, T/C [2] 88.2% | viability, T/C [3] 65.3% | viability, T/C [4] 42.1% | viability, T/C [5] 22% | viability, T/C [6] 9.29% | viability, T/C [7] 95.1% | viability, T/C [8] 104% | viability, T/C [9] 62.3% | viability, T/C [10] 47.7% | viability, T/C [11] 20.8% | viability, T/C [13] 95.3% | viability, T/C [14] 80.5% | viability, T/C [15] 69.5% | viability, T/C [16] 36.2% | viability, T/C [17] 17.8% | viability, T/C [19] 96.4% | viability, T/C [20] 101% | viability, T/C [21] 67.1% | viability, T/C [22] 34.6% | viability, T/C [23] 17.9% | viability, T/C [25] 64.4% | viability, T/C [26] 59.7% | viability, T/C [27] 42% | viability, T/C [28] 28.8% | viability, T/C [29] 15.8%

CCN(c1cc(-c2ccc(CN3CCOCC3)cc2)cc(C(=O)NCc2c(C)cc(C)[nH]c2=O)c1C)C1CCOCC1 + NC1CC1c1ccc(-c2cccc(O)c2)cc1
214 nM: IC50 (second compound 0.316 µM)
171 nM: IC50 (second compound 1 µM) | IC50 (second compound 3.16 µM)
219 nM: IC50 (second compound 0.1 µM)
inactive: viability, T/C [31] 98.8% | viability, T/C [32] 89.1% | viability, T/C [33] 64.3% | viability, T/C [34] 42.8% | viability, T/C (second compound 0.1 µM, first compound 0.949 µM) 34.9% | viability, T/C (second compound 0.1 µM, first compound 3 µM) 23% | viability, T/C [35] 90% | viability, T/C [36] 98.7% | viability, T/C [37] 62.1% | viability, T/C [38] 46.3% | viability, T/C (second compound 0.316 µM, first compound 0.949 µM) 33.7% | viability, T/C (second compound 0.316 µM, first compound 3 µM) 25.8% | viability, T/C [39] 82.3% | viability, T/C [40] 79% | viability, T/C [41] 57.2% | viability, T/C [42] 41.7% | viability, T/C (second compound 1 µM, first compound 0.949 µM) 28.6% | viability, T/C (second compound 1 µM, first compound 3 µM) 22.3% | viability, T/C [43] 80% | viability, T/C [44] 86.1% | viability, T/C [45] 61.8% | viability, T/C [46] 37.5% | viability, T/C (second compound 3.16 µM, first compound 0.949 µM) 29.3% | viability, T/C (second compound 3.16 µM, first compound 3 µM) 22.1% | viability, T/C [47] 76.6% | viability, T/C [48] 60.4% | viability, T/C [49] 46.5% | viability, T/C [50] 33.7% | viability, T/C (second compound 10 µM, first compound 0.949 µM) 29% | viability, T/C (second compound 10 µM, first compound 3 µM) 22.3%
69.1 nM: IC50 (second compound 10 µM)

Cn1ncnc1C1c2n[nH]c(=O)c3cc(F)cc(c23)NC1c1ccc(F)cc1 (stereo not given) + NC1CC1c1ccc(-c2cccc(O)c2)cc1
inactive: viability, T/C (second compound 0.1 µM, first compound 0.000316 µM) 98.1% | viability, T/C (second compound 0.1 µM, first compound 0.001 µM) 102% | viability, T/C (second compound 0.1 µM, first compound 0.00316 µM) 72.5% | viability, T/C (second compound 0.1 µM, first compound 0.01 µM) 73.1% | viability, T/C [1] 64.6% | viability, T/C [2] 46.7% | viability, T/C (second compound 0.316 µM, first compound 0.000316 µM) 120% | viability, T/C (second compound 0.316 µM, first compound 0.001 µM) 79.1% | viability, T/C (second compound 0.316 µM, first compound 0.00316 µM) 67.4% | viability, T/C (second compound 0.316 µM, first compound 0.01 µM) 60.9% | viability, T/C [7] 52.8% | viability, T/C [8] 46% | viability, T/C (second compound 1 µM, first compound 0.000316 µM) 93.2% | viability, T/C (second compound 1 µM, first compound 0.001 µM) 112% | viability, T/C (second compound 1 µM, first compound 0.00316 µM) 67% | viability, T/C (second compound 1 µM, first compound 0.01 µM) 57.6% | viability, T/C [13] 61.9% | viability, T/C [14] 42.4% | viability, T/C (second compound 3.16 µM, first compound 0.000316 µM) 92.8% | viability, T/C (second compound 3.16 µM, first compound 0.001 µM) 85.5% | viability, T/C (second compound 3.16 µM, first compound 0.00316 µM) 74.5% | viability, T/C (second compound 3.16 µM, first compound 0.01 µM) 48.2% | viability, T/C [19] 50.6% | viability, T/C [20] 39.1% | viability, T/C (second compound 10 µM, first compound 0.000316 µM) 74.1% | viability, T/C (second compound 10 µM, first compound 0.001 µM) 67.7% | viability, T/C (second compound 10 µM, first compound 0.00316 µM) 45.9% | viability, T/C (second compound 10 µM, first compound 0.01 µM) 33.5% | viability, T/C [25] 34.8% | viability, T/C [26] 26.3%
2.6 nM: IC50 (second compound 10 µM)
87.7 nM: IC50 (second compound 0.1 µM)
> 100 nM: IC50 (second compound 0.316 µM) | IC50 (second compound 1 µM)
12 nM: IC50 (second compound 3.16 µM)

Nc1ncn(C2CC(O)C(CO)S2)c(=O)n1 (stereo not given) + NC1CC1c1ccc(-c2cccc(O)c2)cc1
inactive: viability, T/C (second compound 0.1 µM, first compound 0.000949 µM) 104% | viability, T/C (second compound 0.1 µM, first compound 0.003 µM) 87.9% | viability, T/C [31] 56.7% | viability, T/C [32] 47.2% | viability, T/C [33] 31.8% | viability, T/C [34] 19.5% | viability, T/C (second compound 0.316 µM, first compound 0.000949 µM) 84% | viability, T/C (second compound 0.316 µM, first compound 0.003 µM) 77.1% | viability, T/C [35] 57.8% | viability, T/C [36] 45.1% | viability, T/C [37] 26.3% | viability, T/C [38] 16.4% | viability, T/C (second compound 1 µM, first compound 0.000949 µM) 80.8% | viability, T/C (second compound 1 µM, first compound 0.003 µM) 76% | viability, T/C [39] 49.6% | viability, T/C [40] 35.4% | viability, T/C [41] 23.9% | viability, T/C [42] 13.9% | viability, T/C (second compound 3.16 µM, first compound 0.000949 µM) 90.4% | viability, T/C (second compound 3.16 µM, first compound 0.003 µM) 81.3% | viability, T/C [43] 47.7% | viability, T/C [44] 33% | viability, T/C [45] 22.5% | viability, T/C [46] 13.5% | viability, T/C (second compound 10 µM, first compound 0.000949 µM) 62.5% | viability, T/C (second compound 10 µM, first compound 0.003 µM) 53.6% | viability, T/C [47] 39.1% | viability, T/C [48] 29.9% | viability, T/C [49] 19.8% | viability, T/C [50] 13.8%
3.83 nM: IC50 (second compound 10 µM)
10.7 nM: IC50 (second compound 3.16 µM)
18.9 nM: IC50 (second compound 0.316 µM)
11.8 nM: IC50 (second compound 1 µM)
21.2 nM: IC50 (second compound 0.1 µM)
